Values joined by “and” are separate entries in the source; they are usually repeats but may differ in a detail not shown here. Equal entries are not always repeated. Where two headings read alike, the source gives them in different places.
How the values were obtained:
Test in all cases: biochemical
Assay type in all cases: biochemical
panel of 391 kinases [1] = target: panel of 391 kinases (Homo sapiens, UniProt P36888); details: FLT3, MK-28 1 µM, ATP 1 µM
panel of 391 kinases [2] = target: panel of 391 kinases (Homo sapiens, UniProt P50750); details: MK-28 1 µM, ATP 1 µM; for remaining activity at 1 µM: read-out: % Enzyme Activity (relative to DMSO controls)
panel of 391 kinases [3] = target: panel of 391 kinases (Homo sapiens, UniProt Q06418); details: TYRO3/SKY, MK-28 1 µM, ATP 1 µM
panel of 391 kinases [4] = details: for % Enzyme Activity (relative to DMSO controls): MK-28 1 µM, ATP 1 µM
panel of 391 kinases [5] = target: panel of 391 kinases (Homo sapiens, UniProt P21709); details: EPHA1, MK-28 1 µM, ATP 1 µM
panel of 391 kinases [6] = target: panel of 391 kinases (Homo sapiens, UniProt O00444); details: PLK4/SAK, MK-28 1 µM, ATP 1 µM
panel of 391 kinases [7] = target: panel of 391 kinases (Homo sapiens, UniProt P53350); details: PLK1, MK-28 1 µM, ATP 1 µM
panel of 391 kinases [8] = target: panel of 391 kinases (Homo sapiens, UniProt P48729); details: CK1a1, MK-28 1 µM, ATP 1 µM
panel of 391 kinases [9] = target: panel of 391 kinases (Homo sapiens, UniProt Q9HC98); details: NEK6, MK-28 1 µM, ATP 1 µM
panel of 391 kinases [10] = target: panel of 391 kinases (Homo sapiens, UniProt Q16832); details: DDR2, MK-28 1 µM, ATP 1 µM
panel of 391 kinases [11] = target: panel of 391 kinases (Homo sapiens, UniProt Q6P2M8); details: CAMK1b, MK-28 1 µM, ATP 1 µM
panel of 391 kinases [12] = target: panel of 391 kinases (Homo sapiens, UniProt P45984); details: JNK2, MK-28 1 µM, ATP 1 µM
panel of 391 kinases [13] = target: panel of 391 kinases (Homo sapiens, UniProt P19525); details: kinase EIF2AK2, compound at 1 µM, single dose in duplicates, 1 µM ATP
panel of 391 kinases [14] = target: panel of 391 kinases (Homo sapiens, UniProt Q9UQB9); details: Aurora C, MK-28 1 µM, ATP 1 µM
panel of 391 kinases [15] = target: panel of 391 kinases (Homo sapiens, UniProt Q00526); details: MK-28 1 µM, ATP 1 µM; for remaining activity at 1 µM: read-out: % Enzyme Activity (relative to DMSO controls)
panel of 391 kinases [16] = target: panel of 391 kinases (Homo sapiens, UniProt Q15120); details: kinase PDK3/PDHK3, compound at 1 µM, single dose in duplicates, 1 µM ATP
panel of 391 kinases [17] = target: panel of 391 kinases (Homo sapiens, UniProt P07333); details: FMS, MK-28 1 µM, ATP 1 µM
panel of 391 kinases [18] = target: panel of 391 kinases (Homo sapiens, UniProt Q96GD4); details: Aurora B, MK-28 1 µM, ATP 1 µM
panel of 391 kinases [19] = target: panel of 391 kinases (Homo sapiens, UniProt Q9HCP0); details: CK1g1, MK-28 1 µM, ATP 1 µM
panel of 391 kinases [20] = target: panel of 391 kinases (Homo sapiens, UniProt O95382); details: MEKK6, MK-28 1 µM, ATP 1 µM
panel of 391 kinases [21] = target: panel of 391 kinases (Homo sapiens, UniProt Q9H093); details: SNARK/NUAK2, MK-28 1 µM, ATP 1 µM
panel of 391 kinases [22] = target: panel of 391 kinases (Homo sapiens, UniProt P41743); details: PKCiota, MK-28 1 µM, ATP 1 µM
panel of 391 kinases [23] = target: panel of 391 kinases (Homo sapiens, UniProt Q15303); details: ERBB4/HER4, MK-28 1 µM, ATP 1 µM
panel of 391 kinases [24] = target: panel of 391 kinases (Homo sapiens, UniProt Q8TDC3); details: BRSK1, MK-28 1 µM, ATP 1 µM
panel of 391 kinases [25] = target: panel of 391 kinases (Homo sapiens, UniProt Q9Y4K4); details: KHS/MAP4K5, MK-28 1 µM, ATP 1 µM
panel of 391 kinases [26] = target: panel of 391 kinases (Homo sapiens, UniProt Q8N752); details: CK1a1L, MK-28 1 µM, ATP 1 µM
[27] = read-out: % Enzyme Activity (relative to DMSO controls)

SMILES: CN(/N=C\c1ccc(O)c(O)c1)c1nc(-c2ccccc2)cc(-c2ccccc2)n1 [MK-28]
- % Enzyme Activity (relative to DMSO controls) (panel of 391 kinases [1]): 95.61%
- remaining activity at 1 µM (panel of 391 kinases [1]; [27]): 95.6%
- % Enzyme Activity (relative to DMSO controls) (panel of 391 kinases [2]; CDK9/cyclin K): 95.35%
- remaining activity at 1 µM (panel of 391 kinases [2]; CDK9/cyclin K): 96.1%
- % Enzyme Activity (relative to DMSO controls) (panel of 391 kinases [2]; CDK9/cyclin T1): 83.98%
- remaining activity at 1 µM (panel of 391 kinases [2]; CDK9/cyclin T1): 84.2%
- % Enzyme Activity (relative to DMSO controls) (panel of 391 kinases [2]; CDK9/cyclin T2): 97.55%
- remaining activity at 1 µM (panel of 391 kinases [2]; CDK9/cyclin T2): 103%
- % Enzyme Activity (relative to DMSO controls) (panel of 391 kinases [3]): 99.89%
- remaining activity at 1 µM (panel of 391 kinases [3]; [27]): 100%
- number of other hits showing more than 30% increase over control (panel of 391 kinases [4]; 1 μM, 391-kinase panel): 3
- % Enzyme Activity (relative to DMSO controls) (panel of 391 kinases [4]; LYN B): 100.85% and 99.31%
- % Enzyme Activity (relative to DMSO controls) (panel of 391 kinases [4]; PKCb2): 90.95% and 90.23%
- % Enzyme Activity (relative to DMSO controls) (panel of 391 kinases [4]; PKG1b): 113.02% and 112.43%
- % Enzyme Activity (relative to DMSO controls) (panel of 391 kinases [5]): 99.87%
- remaining activity at 1 µM (panel of 391 kinases [5]; [27]): 102%
- % Enzyme Activity (relative to DMSO controls) (panel of 391 kinases [6]): 92.07%
- remaining activity at 1 µM (panel of 391 kinases [6]; [27]): 94.7%
- % Enzyme Activity (relative to DMSO controls) (panel of 391 kinases [7]): 95.85%
- remaining activity at 1 µM (panel of 391 kinases [7]; [27]): 95.9%
- % Enzyme Activity (relative to DMSO controls) (panel of 391 kinases [8]): 98.77%
- remaining activity at 1 µM (panel of 391 kinases [8]; [27]): 99.5%
- % Enzyme Activity (relative to DMSO controls) (panel of 391 kinases [9]): 99.56%
- remaining activity at 1 µM (panel of 391 kinases [9]; [27]): 100%
- % Enzyme Activity (relative to DMSO controls) (panel of 391 kinases [10]): 95.21%
- remaining activity at 1 µM (panel of 391 kinases [10]; [27]): 97.4%
- % Enzyme Activity (relative to DMSO controls) (panel of 391 kinases [11]): 94.89%
- remaining activity at 1 µM (panel of 391 kinases [11]; [27]): 96.9%
- % Enzyme Activity (relative to DMSO controls) (panel of 391 kinases [12]): 90.48%
- remaining activity at 1 µM (panel of 391 kinases [12]; [27]): 90.8%
- % Enzyme Activity (relative to DMSO controls) (panel of 391 kinases [13]): 97.81%
- remaining activity at 1 µM (panel of 391 kinases [13]; [27]): 99%
- % Enzyme Activity (relative to DMSO controls) (panel of 391 kinases [14]): 93.97%
- remaining activity at 1 µM (panel of 391 kinases [14]; [27]): 95.6%
- % Enzyme Activity (relative to DMSO controls) (panel of 391 kinases [15]; CDK3/cyclin E2): 90.11%
- remaining activity at 1 µM (panel of 391 kinases [15]; CDK3/cyclin E2): 92.8%
- % Enzyme Activity (relative to DMSO controls) (panel of 391 kinases [15]; CDK3/cyclin E): 101.82%
- remaining activity at 1 µM (panel of 391 kinases [15]; CDK3/cyclin E): 102%
- % Enzyme Activity (relative to DMSO controls) (panel of 391 kinases [16]): 102.25%
- remaining activity at 1 µM (panel of 391 kinases [16]; [27]): 105%
- % Enzyme Activity (relative to DMSO controls) (panel of 391 kinases [17]): 101.26%
- remaining activity at 1 µM (panel of 391 kinases [17]; [27]): 102%
- % Enzyme Activity (relative to DMSO controls) (panel of 391 kinases [18]): 106.50%
- remaining activity at 1 µM (panel of 391 kinases [18]; [27]): 107%
- % Enzyme Activity (relative to DMSO controls) (panel of 391 kinases [19]): 78.20%
- remaining activity at 1 µM (panel of 391 kinases [19]; [27]): 80%
- % Enzyme Activity (relative to DMSO controls) (panel of 391 kinases [20]): 101.22%
- remaining activity at 1 µM (panel of 391 kinases [20]; [27]): 108%
- % Enzyme Activity (relative to DMSO controls) (panel of 391 kinases [21]): 94.11%
- remaining activity at 1 µM (panel of 391 kinases [21]; [27]): 95.6%
- % Enzyme Activity (relative to DMSO controls) (panel of 391 kinases [22]): 105.00%
- remaining activity at 1 µM (panel of 391 kinases [22]; [27]): 105%
- % Enzyme Activity (relative to DMSO controls) (panel of 391 kinases [23]): 97.84%
- remaining activity at 1 µM (panel of 391 kinases [23]; [27]): 99.3%
- % Enzyme Activity (relative to DMSO controls) (panel of 391 kinases [24]): 90.51%
- remaining activity at 1 µM (panel of 391 kinases [24]; [27]): 92.8%
- % Enzyme Activity (relative to DMSO controls) (panel of 391 kinases [25]): 84.30%
- remaining activity at 1 µM (panel of 391 kinases [25]; [27]): 86.9%
- % Enzyme Activity (relative to DMSO controls) (panel of 391 kinases [26]): 99.36%
- remaining activity at 1 µM (panel of 391 kinases [26]; [27]): 100%

— PMC7181660, “A novel specific PERK activator reduces toxicity and extends survival in Huntington's disease models” (Scientific Reports, 2020)
